For 44 compounds, EC50 results are on record in US8309545B2, “Benzofuran potassium channel blockers and uses thereof” (Bionomics Limited, priority 2006, dated 2012).

T1 sequence (P22001 whole entry): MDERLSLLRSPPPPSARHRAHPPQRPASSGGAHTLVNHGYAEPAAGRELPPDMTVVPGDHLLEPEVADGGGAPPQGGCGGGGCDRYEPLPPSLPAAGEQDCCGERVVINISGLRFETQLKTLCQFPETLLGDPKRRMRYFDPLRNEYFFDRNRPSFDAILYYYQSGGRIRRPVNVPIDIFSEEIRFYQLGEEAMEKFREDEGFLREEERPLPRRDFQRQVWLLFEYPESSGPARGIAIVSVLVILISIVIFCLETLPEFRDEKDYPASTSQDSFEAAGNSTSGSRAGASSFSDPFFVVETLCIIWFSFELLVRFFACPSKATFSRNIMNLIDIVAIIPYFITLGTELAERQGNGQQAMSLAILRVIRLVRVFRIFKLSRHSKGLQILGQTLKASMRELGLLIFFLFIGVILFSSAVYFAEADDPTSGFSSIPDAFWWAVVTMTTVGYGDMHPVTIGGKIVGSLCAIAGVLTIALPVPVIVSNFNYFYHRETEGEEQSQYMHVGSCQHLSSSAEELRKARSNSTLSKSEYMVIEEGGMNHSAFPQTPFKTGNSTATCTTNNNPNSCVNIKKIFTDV

This experiment concerns the target T1, human Kv1.3 ion channel (Homo sapiens, UniProt P22001).
T1 construct: Human Jurkat cells (which endogenously express hKv1.3) were used in place of rat L929 cells; endogenous in cells; host or cells: Human Jurkat cells
As to the kind of experiment: Inhibition of Kv1.3 currents, planar patch clamp in Jurkat cells. Type of experiment: cell-based. Particulars: Human Jurkat cells (endogenous hKv1.3), averaged dose response data from 3 or more cells. The procedure:
Potency of compounds to inhibit the human Kv1.3 ion channel were determined as follows:
EC50 values for inhibition of Kv1.3 currents were determined by the method according to Schmitz et al (2005) Molecular Pharmacology 68, 1254-1270 with the following differences: • 1. Human Jurkat cells (which endogenously express hKv1.3) were used in place of rat L929 cells. • 2. All electrophysiology was performed using planar patch clamp (Port-A-Patch, Nanion Technologies Gmbh, Munich) in contrast to conventional patch clamp. • 3. EC50 values shown were determined from averaged dose response data obtained from 3 or more cells.
`CC(=O)c1c(O)c(OCCCc2ccc(F)cc2)c2occc2c1C` [Example 47a, 5-Acetyl-7-(3-(4-fluorophenyl)propoxy)-6-hydroxy-4-methylbenzofuran] yielded a 50% effective concentration (EC50) of 531 nM.
With `CC(=O)c1c(OCCCc2nnn[nH]2)c(OCCCc2ccccc2)c2occc2c1C` [Example 54b, 5-Acetyl-6-(3-(1H-tetrazol-5-yl)-propoxy)-4-methyl-7-(3-phenylpropoxy)benzofuran], the 50% effective concentration (EC50) came to 1600 nM.
As to `CC(=O)c1c(OCCN(C)C)cc2occc2c1OCCCCOc1ccccc1` [Example 25, 5-Acetyl-6-(2-dimethylamino-ethoxy)-4-(4-phenoxybutoxy)benzofuran], it took 600 nM to reach a half-maximal effect (EC50).
On to `Cc1cc(=O)c2c(C)c3ccoc3c(OCCOc3ccc(F)cc3)c2o1` [Example 43b, 9-[2-(4-Fluoro-phenoxy)-ethoxy]-4,7-dimethyl-furo[3,2-g]chromen-5-one], for which a half-maximal effect (EC50) was put at 229 nM.
In turn, `CC(=O)c1c(OCCc2ccccn2)c(OCCC(C)c2ccc(F)cc2)c2occc2c1C` (centres unmarked) [Example 44d, 5-Acetyl-7-(3-[4-fluorophenyl]butoxy)-4-methyl-6-(2-pyridin-2-yl-ethoxy)benzofuran] displayed a concentration giving a half-maximal response (EC50) of 22 nM.
`CC(=O)c1cc2ccoc2c(OCCCc2ccccc2)c1OCCN1CCOCC1` [22 c)] came in with an EC50 of 610 nM.
With `CC(=O)c1c(OCCN2CCOCC2)c(OC[C@H]2C[C@@H]2c2ccccc2)c2occc2c1C` [Example 58c, 1-[4-Methyl-6-(2-morpholin-4-yl-ethoxy)-7-(1S,2S-2-phenyl-cyclopropylmethoxy)-benzofuran-5-yl]-ethanone], it took 100 nM to reach a half-maximal effect (EC50).
For the compound `CC(=O)c1c(OCCNC2CCCC2)c(OCCCc2ccc(F)cc2)c2occc2c1C` [Example 48, 1-[6-(2-Cyclopentylamino-ethoxy)-4-methyl-7-(3-(4-fluoro-phenyl)-propoxy)-benzofuran-5-yl]-ethanone], the half-maximal effective concentration (EC50) was 47 nM.
`COc1c(C(C)=O)c(OCCN2CCOCC2)c(OCCCc2ccccc2)c2occc12` [Example 16, 5-Acetyl-6-(2-morpholinoethoxy)-4-methoxy-7-(3-phenylpropoxy)benzofuran] came in with a half-maximal effective concentration (EC50) of 110 nM.
In the case of `CC(=O)c1c(OCCCn2ccnc2)c(OCCCc2ccccc2)c2occc2c1C` [Example 29, 5-Acetyl-6-(3-imidazol-1-yl-propoxy)-4-methyl-7-(3-phenylpropoxy)-benzofuran] it was 136 nM; in that of `CC(=O)c1c(OCCNC2CCCC2)c(OCCC(C)c2ccccc2)c2occc2c1C` (centres unmarked) [Example 53, 1-[6-(2-Cyclopentylamino-ethoxy)-4-methyl-7-(3-phenyl-butoxy)-benzofuran-5-yl]-ethanone], 23 nM.
In the case of `COc1c(C(C)=O)c(OCCCNc2ccccc2)c(OC)c2occc12` [Example 12, 5-Acetyl-4,7-dimethoxy-6-(3-(phenylamino)propoxy)benzofuran], a half-maximal effect (EC50) was put at 690 nM.
The value for `CC(=O)c1c(OCCCCN2CCOCC2)c(OCCCc2ccccc2)c2occc2c1C` [28 b)] was 640 nM; that for `COc1c(C(C)=O)c(OCCNc2ccccc2)c(OC)c2occc12` [Example 11, 5-Acetyl-4,7-dimethoxy-6-(2-(phenylamino)ethoxy)benzofuran] was 980 nM; that for `CC(=O)c1c(OCCN2CCOCC2)c(OCCC(C)c2ccccc2)c2occc2c1C` (centres unmarked) [Example 50b, 1-[4-Methyl-6-(2-morpholin-4-yl-ethoxy)-7-(3-phenyl-butoxy)-benzofuran-5-yl]-ethanone] was 16 nM.
In the case of `COc1c(C(C)=O)c(OCCCOc2ccccc2)c(OC)c2occc12` [6 b)] it was 720 nM; in that of `COc1c(C(C)=O)c(OCCOc2ccccc2)c(OC)c2occc12` [5 b)], 880 nM.
`Cc1cc(=O)c2c(C)c3ccoc3c(OC[C@H]3C[C@@H]3c3ccccc3)c2o1` (racemic) [Example 58a, rac-4,7-Dimethyl-9-(1S,2S-2-phenyl-cyclopropylmethoxy)-furo[3,2-g]chromen-5-one]: the concentration for a half-maximal effect (EC50) was 165 nM.
Compound `COc1c(C(C)=O)c(OCCSc2ccccc2)c(OC)c2occc12` [Example 7, 5-Acetyl-4,7-dimethoxy-6-(2-(thiophenoxy)ethoxy)benzofuran] displayed an EC50 of 680 nM.
On to `Cc1cc(=O)c2c(C)c3ccoc3c(OCCCc3ccccc3)c2o1` [18 a)], for which the EC50 is 114 nM.
Regarding `CC(=O)c1c(OCCNC2CCCC2)c(OCCC(C)c2ccc(F)cc2)c2occc2c1C` (centres unmarked) [Example 45b, 5-Acetyl-7-(3-[4-fluorophenyl]butoxy)-4-methyl-6-(2-Cyclopentylamino-ethoxy)benzofuran], a half-maximal effect (EC50) was put at 43 nM.
Turning to `CC(=O)c1c(OCCCCn2ccnc2)c(OCCCc2ccccc2)c2occc2c1C` [Example 30, 5-Acetyl-6-(4-imidazol-1-yl-butoxy)-4-methyl-7-(3-phenylpropoxy)-benzofuran], the midpoint of the response, the EC50, lay at 120 nM.
The compound `COc1c(C(C)=O)c(OCCCc2ccccc2)c(OC)c2occc12` [Example 1, 5-Acetyl-4,7-dimethoxy-6-(3-(phenyl)propoxy)benzofuran] came in with an EC50 of 290 nM.
For the compound `CC(=O)c1c(OCC(=O)N2CCOCC2)c(OCCCc2ccccc2)c2occc2c1C` [Example 42, 2-[5-Acetyl-4-methyl-7-(3-phenyl-propoxy)-benzofuran-6-yloxy]-1-morpholin-4-yl-ethanone], it took 480 nM to reach a half-maximal effect (EC50).
The value for `COc1c(C(C)=O)c(OCCCSc2ccccc2)c(OC)c2occc12` [Example 8, 5-Acetyl-4,7-dimethoxy-6-(3-(phenylthio)propoxy)benzofuran] was 750 nM; that for `CC(=O)c1c(OCCNCCO)c(OCCCc2ccccc2)c2occc2c1C` [Example 39, 5-Acetyl-6-(2-(2-Hydroxy-ethylamino)-ethoxy)-4-methyl-7-(3-phenylpropoxy)-benzofuran] was 576 nM.
`CC(=O)c1c(OCCN2CCOCC2)c(OCC#Cc2ccccc2)c2occc2c1C` [Example 60c, 1-[4-Methyl-6-(2-morpholin-4-yl-ethoxy)-7-(3-phenyl-prop-2-ynyloxy)-benzofuran-5-yl]-ethanone] showed an EC50 of 331 nM.
`CC(=O)c1c(OCCn2ccnc2)c(OCCCc2ccccc2)c2occc2c1C` [20 b)]: the EC50 is 68 nM.
The value for `COc1c(C(C)=O)c(OCCn2ccnc2)c(OCCCc2ccccc2)c2occc12` [Example 17, 5-Acetyl-6-(2-imidazol-1-ylethoxy)-4-methoxy-7-(3-phenylpropoxy)benzofuran] was 81 nM; that for `CC(=O)c1c(OCCN2CCOCC2)c(OCC[C@@H](C)c2ccccc2)c2occc2c1C` [Example 51, 1-[4-Methyl-6-(2-morpholin-4-yl-ethoxy)-7-(3-phenyl-butoxy)-benzofuran-5-yl]-ethanone] was 18 nM.
In the case of `CC(=O)c1c(OCCN2CCOCC2)cc2occc2c1OCCCCOc1ccccc1` [23 d)], the EC50 was found to be 174 nM.
On to `COc1c(C(C)=O)c(OCCCS(=O)(=O)c2ccccc2)c(OC)c2occc12` [Example 10, 5-Acetyl-4,7-dimethoxy-6-(3-(benzenesulfonyl)propoxy)benzofuran], for which the EC50 was 1510 nM.
On to `CC(=O)c1c(OCCN(C)C)c(OCCCc2ccccc2)c2occc2c1C` [18 c)], for which a half-maximal response (EC50) required 420 nM.
Turning to `CC(=O)c1c(OCCOc2cnccn2)c(OCCCc2ccccc2)c2occc2c1C` [Example 31b, 1-{4-Methyl-7-(3-phenyl-propoxy)-6-[2-(pyrazin-2-yloxy)-ethoxy]-benzofuran-5-yl}-ethanone], the EC50 was 81 nM.
For `CC(=O)c1c(OCCN2CCN(C)CC2)c(OCCCc2ccccc2)c2occc2c1C` [Example 26], the EC50 was 140 nM.
Turning to `CC(=O)c1c(OCCN2CCOCC2)c(OCCOc2ccc(F)cc2)c2occc2c1C` [Example 43e, 1-[7-[2-(4-Fluoro-phenoxy)-ethoxy]-4-methyl-6-(2-morpholin-4-yl-ethoxy)-benzofuran-5-yl]-ethanone], a half-maximal response (EC50) required 286 nM.
Take `CC(=O)c1c(OCCn2nnnc2N)c(OCCCc2ccccc2)c2occc2c1C` [21 b)]: the midpoint of the response, the EC50, lay at 160 nM.
The value for `CC(=O)c1c(O)c(OCCOc2ccc(F)cc2)c2occc2c1C` [Example 43c, 5-Acetyl-7-(2-(4-fluorophenoxy)-ethoxy)-6-hydroxy-4-methylbenzofuran] was 954 nM; that for `CC(=O)c1c(OCCN2CCOCC2)c(OCCCc2ccccc2)c2occc2c1C` [Example 19, 5-Acetyl-6-(2-morpholinoethoxy)-4-methyl-7-(3-phenylpropoxy)benzofuran] was 51 nM.
`CC(=O)c1c(OCCc2nnn[nH]2)c(OCCCc2ccccc2)c2occc2c1C` [Example 55, 5-Acetyl-6-(3-(1H-tetrazol-5-yl)-ethoxy)-4-methyl-7-(3-phenylpropoxy)benzofuran] came in with an EC50 of 6600 nM.
In the case of `CC(=O)c1c(OCCn2cncn2)c(OCCCc2ccccc2)c2occc2c1C` [Example 37, 1-[4-Methyl-7-(3-phenyl-propoxy)-6-(2-[1,2,4]triazol-1-yl-ethoxy)-benzofuran-5-yl]-ethanone], it took 74 nM to reach a half-maximal effect (EC50).
`CC(=O)c1c(OCCCC#N)c(OCCCc2ccccc2)c2occc2c1C` [Example 54a, 5-Acetyl-6-(3-cyanopropoxy)-4-methyl-7-(3-phenylpropoxy)benzofuran]: the midpoint of the response, the EC50, lay at 160 nM.
The compound `CC(=O)c1c(C)c2c(c(CCCCc3ccccc3)c1OCCN1CCOCC1)OCC2` [Example 68, 1-[4-Methyl-6-(2-morpholin-4-yl-ethoxy)-7-(4-phenyl-butyl)-2,3-dihydro-benzofuran-5-yl]-ethanone] displayed a concentration for a half-maximal effect (EC50) of 20 nM.
Take `CC(=O)c1c(O)c(OC[C@H]2C[C@@H]2c2ccccc2)c2occc2c1C` (racemic) [Example 58b, rac-1-[6-Hydroxy-4-methyl-7-(1S,2S-2-phenyl-cyclopropylmethoxy)-benzofuran-5-yl]-ethanone]: the half-maximal effective concentration (EC50) was 512 nM.
